Tests used:
[1] = Acute toxicity in iv dosed BALB/c nude mouse assessed as mortality after 14 days; type: organism-based; settings: in vivo
HL-60 [2] = test: Antitumor activity against human HL60 cells xenografted in NOD-SCID mouse assessed as reduction in tumor growth at 4 umol/kg, iv measured after 15 to 20 days; type: functional; settings: HL-60, iv, read-out: TGI
HL-60 [3] = test: Antiproliferative activity against human HL60 cells assessed as decrease in cell viability measured after 3 days by MTT assay; type: functional, cell-based; settings: HL-60, 72 h
HT-29 = test: Antitumor activity against human HT-29 cells xenografted in athymic nu/nu mouse assessed as reduction in tumor growth at 100 mg/kg administered every day for 18 days relative to vehicle-treated control; type: functional; settings: HT-29, 432 h, read-out: TGI
[4] = substrate: CC(=O)N[C@H]1[C@@H]([C@H](O)[C@H](O)CO)O[C@@](O/N=[N+](\[O-])N2CCCC2)(C(=O)O)C[C@@H]1O; test: Activity at Clostridium perfringens neuraminidase assessed as release of nitric oxide by UV-vis spectrophotometer

CC1(C)CC[C@]2(C(=O)O[C@H]3O[C@@H](CO)[C@H](O)[C@@H](O)[C@@H]3O)CC[C@]3(C)C(=CC[C@@H]4[C@@]5(C)CC[C@H](OC(=O)CCC(=O)OC6CCN(/[N+]([O-])=N/O[C@@H]7O[C@H](CO)[C@H](O)[C@H](O)[C@H]7O)CC6)C(C)(C)[C@@H]5CC[C@]43C)[C@@H]2C1 gave an LD50 at 336 h [1] of 173 mg/kg.

For CCOC(=O)N1CCN(/[N+]([O-])=N/Oc2ccc([N+](=O)[O-])cc2[N+](=O)[O-])CC1, the inhibition in vivo at 4 µmol/kg (HL-60 [2]) was 50% and the IC50 (HL-60 [3]) was 200 to 500 nM.

Work on O=C(CCCO[N+](=O)[O-])Oc1ccccc1C(=O)Oc1ccc(-c2cc(=S)ss2)cc1 yielded an inhibition in vivo at 100 mg/kg (HT-29) of 85%.

B1: Sialidase (Clostridium perfringens), P10481 (protein)
chain: MCNKNNTFEKNLDISHKPEPLILFNKDNNIWNSKYFRIPNIQLLNDGTILTFSDIRYNGPDDHAYIDIASARSTDFGKTWSYNIAMKNNRIDSTYSRVMDSTTVITNTGRIILIAGSWNTNGNWAMTTSTRRSDWSVQMIYSDDNGLTWSNKIDLTKDSSKVKNQPSNTIGWLGGVGSGIVMDDGTIVMPAQISLRENNENNYYSLIIYSKDNGETWTMGNKVPNSNTSENMVIELDGALIMSTRYDYSGYRAAYISHDLGTTWEIYEPLNGKILTGKGSGCQGSFIKATTSNGHRIGLISAPKNTKGEYIRDNIAVYMIDFDDLSKGVQEICIPYPEDGNKLGGGYSCLSFKNNHLGIVYEANGNIEYQDLTPYYSLINKQ
Molecule B1 has a Km [4] of 140 µM.
